Laboratory results published in ChEMBL document CHEMBL1130694, “Selective chemical modifications of polymyxin B” (Bioorg Med Chem Lett, 1998).
In brackets after ≈: the same amount, converted by molar mass. Positions of bridges follow the written chain, without caps; N, C: chain ends. Non-standard residues stand in square brackets, D forms with d. Residues, ends and D or L forms follow the SMILES beside them. *: point of attachment. Heptanoyl(6-Me) = CC(C)CCCCC(=O)*; Dab = NCC[C@H](N)C(=O)O

How the values were obtained:
Escherichia coli = assay: Compound was tested for antibacterial activity against Escherichia coli organism; format: functional
Pseudomonas = assay: Compound was tested for antibacterial activity against Pseudomonas organism; format: functional
Staphylococcus = assay: Compound was tested for antibacterial activity against Staphylococcus organism; format: functional
[1] = Compound was tested for acute toxicity in mice upon intravenous administration; format: organism-based; conditions: mouse, in vivo
[2] = Ratio of LD50 to PD50 was evaluated.; format: ADME, organism-based; conditions: mouse, in vivo
Mus musculus = species on record: Mus musculus; assay: Compound was tested for protection against Pseudomonas infection in mice; format: functional; conditions: read-out: PD50

Compound	MIC (Escherichia coli) [µg/mL]	MIC (Pseudomonas) [µg/mL]	MIC (Staphylococcus) [µg/mL]	LD50 [1] [mg/kg]	selectivity ratio [2]	ED50 (Mus musculus) [mg/kg]
CC(C)CCCCC(=O)N[C@@H](CCN)C(=O)N[C@H](C(=O)N[C@@H](CCN)C(=O)N[C@H]1CCNC(=O)[C@H]([C@@H](C)O)NC(=O)[C@H](CCNC(=O)[C@@H](N)Cc2ccc(O)cc2)NC(=O)[C@H](CCN)NC(=O)[C@H](CC(C)C)NC(=O)[C@@H](Cc2ccccc2)NC(=O)[C@H](CCN)NC1=O)[C@@H](C)O	0.175 (≈ 0.129 µM)	0.073 (≈ 0.054 µM)	2.2 (≈ 1.63 µM)	19	8.6	2.2
CCN(CC)CC[C@@H]1NC(=O)[C@H](CCN)NC(=O)[C@H](CC(C)C)NC(=O)[C@@H](Cc2ccccc2)NC(=O)[C@H](CCN)NC(=O)[C@@H](NC(=O)[C@H](CCN)NC(=O)[C@@H](NC(=O)[C@H](CCN)NC(=O)CCCCC(C)C)[C@@H](C)O)CCNC(=O)[C@H]([C@@H](C)O)NC1=O	0.995 (≈ 0.799 µM)	0.763 (≈ 0.613 µM)	9.5 (≈ 7.63 µM)	–	–	–
CC(C)CCCCC(=O)N[C@@H](CCN)C(=O)N[C@H](C(=O)N[C@@H](CCN)C(=O)N[C@H]1CCNC(=O)[C@H]([C@@H](C)O)NC(=O)[C@H](CCNC(=O)[C@@H](N)CCCCN)NC(=O)[C@H](CCN)NC(=O)[C@H](CC(C)C)NC(=O)[C@@H](Cc2ccccc2)NC(=O)[C@H](CCN)NC1=O)[C@@H](C)O	0.173 (≈ 0.131 µM)	0.032 (≈ 0.0243 µM)	2.8 (≈ 2.13 µM)	–	–	–
CC(=O)NCC[C@H](NC(=O)CCCCC(C)C)C(=O)N[C@H](C(=O)N[C@@H](CCN)C(=O)N[C@H]1CCNC(=O)[C@H]([C@@H](C)O)NC(=O)[C@H](CCN)NC(=O)[C@H](CCN)NC(=O)[C@H](CC(C)C)NC(=O)[C@@H](Cc2ccccc2)NC(=O)[C@H](CCN)NC1=O)[C@@H](C)O	1.3 (≈ 1.06 µM)	2.8 (≈ 2.27 µM)	2.8 (≈ 2.27 µM)	–	–	–
CC(C)CCCCC(=O)N[C@@H](CCN)C(=O)N[C@H](C(=O)N[C@@H](CCN)C(=O)N[C@H]1CCNC(=O)[C@H]([C@@H](C)O)NC(=O)[C@H](CCNC(=O)[C@@H](N)CS)NC(=O)[C@H](CCN)NC(=O)[C@H](CC(C)C)NC(=O)[C@@H](Cc2ccccc2)NC(=O)[C@H](CCN)NC1=O)[C@@H](C)O	1.68 (≈ 1.3 µM)	2.82 (≈ 2.18 µM)	11.3 (≈ 8.75 µM)	–	–	–
CCNCC[C@@H]1NC(=O)[C@H](CCN)NC(=O)[C@H](CC(C)C)NC(=O)[C@@H](Cc2ccccc2)NC(=O)[C@H](CCN)NC(=O)[C@@H](NC(=O)[C@H](CCN)NC(=O)[C@@H](NC(=O)[C@H](CCN)NC(=O)CCCCC(C)C)[C@@H](C)O)CCNC(=O)[C@H]([C@@H](C)O)NC1=O	0.492 (≈ 0.404 µM)	0.413 (≈ 0.339 µM)	9.5 (≈ 7.8 µM)	–	–	–
CC(C)CCCCC(=O)N[C@@H](CCNC(=O)[C@@H](N)CCCN=C(N)N)C(=O)N[C@H](C(=O)N[C@@H](CCN)C(=O)N[C@H]1CCNC(=O)[C@H]([C@@H](C)O)NC(=O)[C@H](CCN)NC(=O)[C@H](CCN)NC(=O)[C@H](CC(C)C)NC(=O)[C@@H](Cc2ccccc2)NC(=O)[C@H](CCN)NC1=O)[C@@H](C)O	0.453 (≈ 0.337 µM)	0.207 (≈ 0.154 µM)	4.48 (≈ 3.33 µM)	–	–	–
CC(C)CCCCC(=O)N[C@@H](CCN)C(=O)N[C@H](C(=O)N[C@@H](CCN)C(=O)N[C@H]1CCNC(=O)[C@H]([C@@H](C)O)NC(=O)[C@H](CCN(CC(=O)O)CC(=O)O)NC(=O)[C@H](CCN)NC(=O)[C@H](CC(C)C)NC(=O)[C@@H](Cc2ccccc2)NC(=O)[C@H](CCN)NC1=O)[C@@H](C)O	1.19 (≈ 0.911 µM)	0.318 (≈ 0.244 µM)	22.6 (≈ 17.3 µM)	–	–	–
CC(C)CCCCC(=O)N[C@@H](CCN)C(=O)N[C@H](C(=O)N[C@@H](CCN)C(=O)N[C@H]1CCNC(=O)[C@H]([C@@H](C)O)NC(=O)[C@H](CCNC(=O)C(Cl)Cl)NC(=O)[C@H](CCN)NC(=O)[C@H](CC(C)C)NC(=O)[C@@H](Cc2ccccc2)NC(=O)[C@H](CCN)NC1=O)[C@@H](C)O	1.54 (≈ 1.18 µM)	0.995 (≈ 0.765 µM)	0.82 (≈ 0.631 µM)	–	–	–
CC(C)CCCCC(=O)N[C@@H](CCN)C(=O)N[C@H](C(=O)N[C@@H](CCN)C(=O)N[C@H]1CCNC(=O)[C@H]([C@@H](C)O)NC(=O)[C@H](CCN(C)C)NC(=O)[C@H](CCN)NC(=O)[C@H](CC(C)C)NC(=O)[C@@H](Cc2ccccc2)NC(=O)[C@H](CCN)NC1=O)[C@@H](C)O	0.537 (≈ 0.441 µM)	0.456 (≈ 0.375 µM)	16 (≈ 13.1 µM)	–	–	–
CC(C)CCCCC(=O)N[C@@H](CCN)C(=O)N[C@H](C(=O)N[C@@H](CCN)C(=O)N[C@H]1CCNC(=O)[C@H]([C@@H](C)O)NC(=O)[C@H](CCNC(=O)[C@@H](N)CCC/N=C(/N)N[N+](=O)[O-])NC(=O)[C@H](CCN)NC(=O)[C@H](CC(C)C)NC(=O)[C@@H](Cc2ccccc2)NC(=O)[C@H](CCN)NC1=O)[C@@H](C)O	1.3 (≈ 0.935 µM)	2.6 (≈ 1.87 µM)	1.2 (≈ 0.863 µM)	–	–	–
CSCC[C@H](N)C(=O)NCC[C@@H]1NC(=O)[C@H](CCN)NC(=O)[C@H](CC(C)C)NC(=O)[C@@H](Cc2ccccc2)NC(=O)[C@H](CCN)NC(=O)[C@@H](NC(=O)[C@H](CCN)NC(=O)[C@@H](NC(=O)[C@H](CCN)NC(=O)CCCCC(C)C)[C@@H](C)O)CCNC(=O)[C@H]([C@@H](C)O)NC1=O	0.77 (≈ 0.583 µM)	0.416 (≈ 0.315 µM)	5.65 (≈ 4.28 µM)	–	–	–
CC(C)CCCCC(=O)N[C@@H](CCN)C(=O)N[C@H](C(=O)N[C@@H](CCN)C(=O)N[C@H]1CCNC(=O)[C@H]([C@@H](C)O)NC(=O)[C@H](CCNC(=O)CO)NC(=O)[C@H](CCN)NC(=O)[C@H](CC(C)C)NC(=O)[C@@H](Cc2ccccc2)NC(=O)[C@H](CCN)NC1=O)[C@@H](C)O	1.54 (≈ 1.23 µM)	1.53 (≈ 1.23 µM)	22.6 (≈ 18.1 µM)	–	–	–
CC(C)CCCCC(=O)N[C@@H](CCNC(=O)CN)C(=O)N[C@H](C(=O)N[C@@H](CCN)C(=O)N[C@H]1CCNC(=O)[C@H]([C@@H](C)O)NC(=O)[C@H](CCN)NC(=O)[C@H](CCN)NC(=O)[C@H](CC(C)C)NC(=O)[C@@H](Cc2ccccc2)NC(=O)[C@H](CCN)NC1=O)[C@@H](C)O [listing 1 of 2 here]	–	–	–	20	2.8	–
CC(C)CCCCC(=O)N[C@@H](CCNC(=O)CN)C(=O)N[C@H](C(=O)N[C@@H](CCN)C(=O)N[C@H]1CCNC(=O)[C@H]([C@@H](C)O)NC(=O)[C@H](CCN)NC(=O)[C@H](CCN)NC(=O)[C@H](CC(C)C)NC(=O)[C@@H](Cc2ccccc2)NC(=O)[C@H](CCN)NC1=O)[C@@H](C)O [listing 2 of 2 here]	0.028 (≈ 0.0225 µM)	0.033 (≈ 0.0265 µM)	8 (≈ 6.42 µM)	–	–	7
CCN(CC)CC[C@H](NC(=O)CCCCC(C)C)C(=O)N[C@H](C(=O)N[C@@H](CCN)C(=O)N[C@H]1CCNC(=O)[C@H]([C@@H](C)O)NC(=O)[C@H](CCN)NC(=O)[C@H](CCN)NC(=O)[C@H](CC(C)C)NC(=O)[C@@H](Cc2ccccc2)NC(=O)[C@H](CCN)NC1=O)[C@@H](C)O	0.208 (≈ 0.167 µM)	0.206 (≈ 0.165 µM)	2.4 (≈ 1.93 µM)	–	–	–
CC(C)CCCCC(=O)N[C@@H](CCN)C(=O)N[C@H](C(=O)N[C@@H](CCN)C(=O)N[C@H]1CCNC(=O)[C@H]([C@@H](C)O)NC(=O)[C@H](CCNC(=O)CCl)NC(=O)[C@H](CCN)NC(=O)[C@H](CC(C)C)NC(=O)[C@@H](Cc2ccccc2)NC(=O)[C@H](CCN)NC1=O)[C@@H](C)O	0.454 (≈ 0.359 µM)	0.085 (≈ 0.0671 µM)	9.5 (≈ 7.5 µM)	–	–	–
CCNCC[C@H](NC(=O)CCCCC(C)C)C(=O)N[C@H](C(=O)N[C@@H](CCN)C(=O)N[C@H]1CCNC(=O)[C@H]([C@@H](C)O)NC(=O)[C@H](CCN)NC(=O)[C@H](CCN)NC(=O)[C@H](CC(C)C)NC(=O)[C@@H](Cc2ccccc2)NC(=O)[C@H](CCN)NC1=O)[C@@H](C)O	0.112 (≈ 0.092 µM)	0.146 (≈ 0.12 µM)	2.3 (≈ 1.89 µM)	–	–	–
CCCCCCC(N)C(=O)NCC[C@@H]1NC(=O)[C@H](CCN)NC(=O)[C@H](CC(C)C)NC(=O)[C@@H](Cc2ccccc2)NC(=O)[C@H](CCN)NC(=O)[C@@H](NC(=O)[C@H](CCN)NC(=O)[C@@H](NC(=O)[C@H](CCN)NC(=O)CCCCC(C)C)[C@@H](C)O)CCNC(=O)[C@H]([C@@H](C)O)NC1=O (some centres not stated)	0.225 (≈ 0.169 µM)	0.051 (≈ 0.0383 µM)	0.561 (≈ 0.422 µM)	12	1.7	7
CCC(C)CCCCC(=O)NCC[C@@H]1NC(=O)[C@H](CCN)NC(=O)[C@H](CC(C)C)NC(=O)[C@@H](Cc2ccccc2)NC(=O)[C@H](CCN)NC(=O)[C@@H](NC(=O)[C@H](CCN)NC(=O)[C@@H](NC(=O)[C@H](CCN)NC(=O)CCCCC(C)C)[C@@H](C)O)CCNC(=O)[C@H]([C@@H](C)O)NC1=O (some centres not stated)	3.1 (≈ 2.33 µM)	2.18 (≈ 1.64 µM)	0.7 (≈ 0.526 µM)	–	–	–
CC(C)CCCCC(=O)N[C@@H](CCN)C(=O)N[C@H](C(=O)N[C@@H](CCN)C(=O)N[C@H]1CCNC(=O)[C@H]([C@@H](C)O)NC(=O)[C@H](CCN)NC(=O)[C@H](CCN)NC(=O)[C@H](CC(C)C)NC(=O)[C@@H](Cc2ccccc2)NC(=O)[C@H](CCN)NC1=O)[C@@H](C)O ({Heptanoyl(6-Me)}-[Dab]T[Dab][Dab][Dab][dF]L[Dab][Dab]T; lactam 4-C) [listing 1 of 2 here]	–	–	–	9	4.5	–
CC(C)CCCCC(=O)N[C@@H](CCN)C(=O)N[C@H](C(=O)N[C@@H](CCN)C(=O)N[C@H]1CCNC(=O)[C@H]([C@@H](C)O)NC(=O)[C@H](CCN)NC(=O)[C@H](CCN)NC(=O)[C@H](CC(C)C)NC(=O)[C@@H](Cc2ccccc2)NC(=O)[C@H](CCN)NC1=O)[C@@H](C)O ({Heptanoyl(6-Me)}-[Dab]T[Dab][Dab][Dab][dF]L[Dab][Dab]T; lactam 4-C) [listing 2 of 2 here]	0.026 (≈ 0.0219 µM)	0.051 (≈ 0.0429 µM)	2.8 (≈ 2.35 µM)	–	–	2
